Measurements taken from the NIST ThermoML archive (doi:10.1021/je800894y).
Numbers after ± are expanded uncertainties.

Assay: xn = mol fraction of the nth substance listed
Conditions: Liquid; for viscosity: Vibrating wire viscometry; for mass density: vibrating-wire apparatus
[1] = 303.15 K, 10060 kPa, x2 = 0.4233
[2] = 303.15 K, 10070 kPa, x2 = 0.4233
[3] = 303.15 K, 30380 kPa, x2 = 0.4233
[4] = 303.15 K, 50510 kPa, x2 = 0.4233
[5] = 303.15 K, 70400 kPa, x2 = 0.4233
[6] = 303.15 K, 90250 kPa, x2 = 0.4233
[7] = 303.15 K, 110380 kPa, x2 = 0.4233
[8] = 303.15 K, 130280 kPa, x2 = 0.4233
[9] = 303.15 K, 150080 kPa, x2 = 0.4233
[10] = 303.15 K, 170210 kPa, x2 = 0.4233
[11] = 303.17 K, 30190 kPa, x2 = 0.7882
[12] = 303.17 K, 30740 kPa, x2 = 0.7882
[13] = 303.17 K, 50100 kPa, x2 = 0.7882
[14] = 303.17 K, 70730 kPa, x2 = 0.7882
[15] = 303.17 K, 90490 kPa, x2 = 0.7882
[16] = 303.17 K, 110640 kPa, x2 = 0.7882
[17] = 303.17 K, 130570 kPa, x2 = 0.7882
[18] = 303.17 K, 151340 kPa, x2 = 0.7882
[19] = 303.17 K, 170570 kPa, x2 = 0.7882
[20] = 303.18 K, 10600 kPa, x2 = 0.6039
[21] = 303.18 K, 30810 kPa, x2 = 0.6039
[22] = 303.18 K, 50820 kPa, x2 = 0.6039
[23] = 303.18 K, 70800 kPa, x2 = 0.6039
[24] = 303.18 K, 91100 kPa, x2 = 0.6039
[25] = 303.18 K, 100670 kPa, x2 = 0.6039
[26] = 303.18 K, 111110 kPa, x2 = 0.6039
[27] = 303.18 K, 130850 kPa, x2 = 0.6039
[28] = 303.18 K, 150500 kPa, x2 = 0.6039
[29] = 303.18 K, 170440 kPa, x2 = 0.6039
[30] = 348.11 K, 10450 kPa, x2 = 0.6039
[31] = 348.11 K, 10480 kPa, x2 = 0.6039
[32] = 348.11 K, 30310 kPa, x2 = 0.6039
[33] = 348.11 K, 50270 kPa, x2 = 0.6039
[34] = 348.11 K, 70180 kPa, x2 = 0.6039
[35] = 348.11 K, 90320 kPa, x2 = 0.6039
[36] = 348.11 K, 110880 kPa, x2 = 0.6039
[37] = 348.11 K, 130860 kPa, x2 = 0.6039
[38] = 348.11 K, 150870 kPa, x2 = 0.6039
[39] = 348.11 K, 170910 kPa, x2 = 0.6039
[40] = 348.25 K, 10070 kPa, x2 = 0.4233
[41] = 348.25 K, 10100 kPa, x2 = 0.4233
[42] = 348.25 K, 30390 kPa, x2 = 0.7882
[43] = 348.25 K, 30440 kPa, x2 = 0.4233
[44] = 348.25 K, 30610 kPa, x2 = 0.7882
[45] = 348.25 K, 50540 kPa, x2 = 0.7882
[46] = 348.25 K, 50590 kPa, x2 = 0.4233
[47] = 348.25 K, 70530 kPa, x2 = 0.4233
[48] = 348.25 K, 70650 kPa, x2 = 0.7882
[49] = 348.25 K, 90610 kPa, x2 = 0.4233
[50] = 348.25 K, 90680 kPa, x2 = 0.7882
[51] = 348.25 K, 110350 kPa, x2 = 0.7882
[52] = 348.25 K, 110610 kPa, x2 = 0.4233
[53] = 348.25 K, 130400 kPa, x2 = 0.4233
[54] = 348.25 K, 130530 kPa, x2 = 0.7882
[55] = 348.25 K, 150600 kPa, x2 = 0.7882
[56] = 348.25 K, 150670 kPa, x2 = 0.4233
[57] = 348.25 K, 169670 kPa, x2 = 0.4233
[58] = 348.25 K, 170310 kPa, x2 = 0.7882

Question: What does the source list for CC(C)CCCC(C)CCCC(C)CCCCC(C)CCCC(C)CCCC(C)C (stereo unspecified) [2,6,10,15,19,23-hexamethyltetracosane] + O=C=O?
Answer: viscosity [1]: 9.12 ± 0.19 mPa·s; mass density [1]: 814.8 ± 1.6 kg/m3; viscosity [2]: 9.17 ± 0.19 mPa·s; mass density [2]: 815.3 ± 1.6 kg/m3; viscosity [3]: 12.7 ± 0.3 mPa·s; mass density [3]: 828 ± 1.7 kg/m3; viscosity [4]: 17.3 ± 0.4 mPa·s; mass density [4]: 839.2 ± 1.7 kg/m3; viscosity [5]: 23 ± 0.5 mPa·s; mass density [5]: 849.3 ± 1.7 kg/m3; viscosity [6]: 30.5 ± 0.6 mPa·s; mass density [6]: 856.5 ± 1.7 kg/m3; viscosity [7]: 40.1 ± 0.8 mPa·s; mass density [7]: 862.1 ± 1.7 kg/m3; viscosity [8]: 52.3 ± 1.1 mPa·s; mass density [8]: 867.8 ± 1.7 kg/m3; viscosity [9]: 67.8 ± 1.4 mPa·s; mass density [9]: 869.4 ± 1.7 kg/m3; viscosity [10]: 85.9 ± 1.9 mPa·s; mass density [10]: 882.8 ± 1.8 kg/m3; viscosity [11]: 2.36 ± 0.05 mPa·s; mass density [11]: 854.3 ± 1.7 kg/m3; viscosity [12]: 2.24 ± 0.05 mPa·s; mass density [12]: 847.4 ± 1.7 kg/m3; viscosity [13]: 2.79 ± 0.06 mPa·s; mass density [13]: 863.4 ± 1.7 kg/m3; viscosity [14]: 3.43 ± 0.07 mPa·s; mass density [14]: 877.8 ± 1.8 kg/m3; viscosity [15]: 4.15 ± 0.09 mPa·s; mass density [15]: 890 ± 1.8 kg/m3; viscosity [16]: 4.95 ± 0.1 mPa·s; mass density [16]: 901.1 ± 1.8 kg/m3; viscosity [17]: 5.91 ± 0.12 mPa·s; mass density [17]: 911 ± 1.8 kg/m3; viscosity [18]: 6.94 ± 0.14 mPa·s; mass density [18]: 922.8 ± 1.8 kg/m3; viscosity [19]: 8.13 ± 0.17 mPa·s; mass density [19]: 934.8 ± 1.9 kg/m3; viscosity [20]: 4.92 ± 0.1 mPa·s; mass density [20]: 823.9 ± 1.6 kg/m3; viscosity [21]: 6.58 ± 0.14 mPa·s; mass density [21]: 838.1 ± 1.7 kg/m3; viscosity [22]: 8.58 ± 0.18 mPa·s; mass density [22]: 850.4 ± 1.7 kg/m3; viscosity [23]: 11 ± 0.2 mPa·s; mass density [23]: 861 ± 1.7 kg/m3; viscosity [24]: 14 ± 0.3 mPa·s; mass density [24]: 871.1 ± 1.7 kg/m3; viscosity [25]: 15.6 ± 0.3 mPa·s; mass density [25]: 874.8 ± 1.8 kg/m3; viscosity [26]: 17.5 ± 0.4 mPa·s; mass density [26]: 879.9 ± 1.8 kg/m3; viscosity [27]: 21.7 ± 0.4 mPa·s; mass density [27]: 888.1 ± 1.8 kg/m3; viscosity [28]: 26.5 ± 0.5 mPa·s; mass density [28]: 897.9 ± 1.8 kg/m3; viscosity [29]: 32 ± 0.7 mPa·s; mass density [29]: 910.5 ± 1.8 kg/m3; viscosity [30]: 1.92 ± 0.04 mPa·s; mass density [30]: 787.7 ± 1.6 kg/m3; viscosity [31]: 1.92 ± 0.04 mPa·s; mass density [31]: 788.1 ± 1.6 kg/m3; viscosity [32]: 2.49 ± 0.05 mPa·s; mass density [32]: 806 ± 1.6 kg/m3; viscosity [33]: 3.13 ± 0.06 mPa·s; mass density [33]: 820.7 ± 1.6 kg/m3; viscosity [34]: 3.85 ± 0.08 mPa·s; mass density [34]: 833.3 ± 1.7 kg/m3; viscosity [35]: 4.68 ± 0.1 mPa·s; mass density [35]: 844.4 ± 1.7 kg/m3; viscosity [36]: 5.64 ± 0.12 mPa·s; mass density [36]: 854.6 ± 1.7 kg/m3; viscosity [37]: 6.7 ± 0.14 mPa·s; mass density [37]: 863.7 ± 1.7 kg/m3; viscosity [38]: 7.9 ± 0.16 mPa·s; mass density [38]: 872.1 ± 1.7 kg/m3; viscosity [39]: 9.28 ± 0.19 mPa·s; mass density [39]: 879.8 ± 1.8 kg/m3; viscosity [40]: 2.99 ± 0.06 mPa·s; mass density [40]: 783.6 ± 1.6 kg/m3; viscosity [41]: 2.98 ± 0.06 mPa·s; mass density [41]: 783.4 ± 1.6 kg/m3; viscosity [42]: 1.08 ± 0.04 mPa·s; mass density [42]: 806 ± 1.6 kg/m3; viscosity [43]: 3.95 ± 0.08 mPa·s; mass density [43]: 799.2 ± 1.6 kg/m3; viscosity [44]: 1.07 ± 0.03 mPa·s; mass density [44]: 806.9 ± 1.6 kg/m3; viscosity [45]: 1.34 ± 0.03 mPa·s; mass density [45]: 827 ± 1.7 kg/m3; viscosity [46]: 5.1 ± 0.11 mPa·s; mass density [46]: 812.2 ± 1.6 kg/m3; viscosity [47]: 6.42 ± 0.13 mPa·s; mass density [47]: 823.5 ± 1.6 kg/m3; viscosity [48]: 1.61 ± 0.03 mPa·s; mass density [48]: 844 ± 1.7 kg/m3; viscosity [49]: 7.98 ± 0.16 mPa·s; mass density [49]: 833.7 ± 1.7 kg/m3; viscosity [50]: 1.91 ± 0.04 mPa·s; mass density [50]: 858.4 ± 1.7 kg/m3; viscosity [51]: 2.22 ± 0.05 mPa·s; mass density [51]: 870.8 ± 1.7 kg/m3; viscosity [52]: 9.83 ± 0.2 mPa·s; mass density [52]: 842.8 ± 1.7 kg/m3; viscosity [53]: 11.9 ± 0.3 mPa·s; mass density [53]: 851.3 ± 1.7 kg/m3; viscosity [54]: 2.57 ± 0.05 mPa·s; mass density [54]: 882.3 ± 1.8 kg/m3; viscosity [55]: 2.94 ± 0.06 mPa·s; mass density [55]: 892.7 ± 1.8 kg/m3; viscosity [56]: 14.5 ± 0.3 mPa·s; mass density [56]: 859.3 ± 1.7 kg/m3; viscosity [57]: 17.3 ± 0.4 mPa·s; mass density [57]: 866.3 ± 1.7 kg/m3; viscosity [58]: 3.34 ± 0.07 mPa·s; mass density [58]: 902 ± 1.8 kg/m3
